Columns and labels:
[1] = tested on: wild-type soybean plants (CK1); assay: Sulfometuron-methyl tolerance of wild-type soybean plants, damage degree; format: in vivo; conditions: 120 g ai/ha
Description: (§1) The herbicide tolerance effects of Gm cytoplasmic ALT-1-01 soybean plants, Gm chloroplastic ALT-1-01 soybean plants, Gm cytoplasmic ALT-2-01 soybean plants, Gm chloroplastic ALT-2-01 soybean plants, Gm cytoplasmic ALT-3-01 soybean plants, Gm chloroplastic ALT-3-01 soybean plants and wild-type soybean plants on Sulfometuron-methyl were detected (at seedling stage), respectively.
(§2) Gm cytoplasmic ALT-1-01 soybean plants, Gm chloroplastic ALT-1-01 soybean plants, Gm cytoplasmic ALT-2-01 soybean plants, Gm chloroplastic ALT-2-01 soybean plants, Gm cytoplasmic ALT-3-01 soybean plants, Gm chloroplastic ALT-3-01 soybean plants and wild-type soybean plants were respectively taken and sprayed with Sulfometuron-methyl (120 g ai/ha, 4-fold field concentration) and a blank solvent (water). The damage degree caused by the herbicide was measured for each plant according to the leaf curl degree and the growth point damage degree 3 days after spraying (3 DAT), 7 days after spraying (7 DAT), 14 days after spraying (14 DAT) and 21 days after spraying (21 DAT), respectively: considering conditions of leaves being flat as the untreated plants and growth points being intact as having a damage degree of 0%; considering conditions of veins being locally browned, new leaves being malformed and plant growth being slow as having a damage degree of 50%; and considering conditions of veins being purple to whole plant being dead and growth points being browned and dry as having a damage degree of 100%. There were 2 strains in Gm cytoplasmic ALT-1-01 soybean plants in total (S1 and S2), 2 strains in Gm chloroplastic ALT-1-01 soybean plants in total (S3 and S4), 2 strains in Gm cytoplasmic ALT-2-01 soybean plants in total (S5 and S6), 2 strains in Gm chloroplastic ALT-2-01 soybean plants in total (S7 and S8), 2 strains in Gm cytoplasmic ALT-3-01 soybean plants in total (S9 and S10), 2 strains in Gm chloroplastic ALT-3-01 soybean plants in total (S11 and S12), and 1 strain in wild-type soybean plants (CK1) in total; and 10-15 plants were selected from each strain and tested.

[2] = tested on: transgenic soybean plants (Gm cytoplasmic/chloroplastic ALT-1-01, ALT-2-01, ALT-3-01); assay: Sulfometuron-methyl tolerance of transgenic soybean plants, damage degree by leaf curl and growth point damage; format: in vivo; conditions: 120 g ai/ha; for Average damage % 3DAT / Average damage % 7DAT / Average damage % 14DAT / Average damage % 21DAT: 4-fold field concentration; for Average damage % 3DAT: 3 days after spraying; for Average damage % 7DAT: 7 days after spraying; for Average damage % 14DAT: 14 days after spraying; for Average damage % 21DAT: 21 days after spraying
Description: as §1, §2

[3] = strain S1 (Gm cytoplasmic ALT-1-01 soybean)
[4] = strain S2 (Gm cytoplasmic ALT-1-01 soybean)
[5] = strain S3 (Gm chloroplastic ALT-1-01 soybean)
[6] = strain S4 (Gm chloroplastic ALT-1-01 soybean)
[7] = strain S5 (Gm cytoplasmic ALT-2-01 soybean)
[8] = strain S6 (Gm cytoplasmic ALT-2-01 soybean)
[9] = strain S7 (Gm chloroplastic ALT-2-01 soybean)
[10] = strain S8 (Gm chloroplastic ALT-2-01 soybean)
[11] = strain S9 (Gm cytoplasmic ALT-3-01 soybean)
[12] = strain S10 (Gm cytoplasmic ALT-3-01 soybean)
[13] = strain S11 (Gm chloroplastic ALT-3-01 soybean)
[14] = strain S12 (Gm chloroplastic ALT-3-01 soybean)

Compound: COC(=O)c1ccccc1S(=O)(=O)NC(=O)Nc1nc(C)cc(C)n1 [Sulfometuron-methyl, 2-(4,6-dimethylpyrimidine-2-amino-formamido-sulfonyl) methyl benzoate]
- Average damage % 3DAT ([1]; CK1 (wild-type soybean), 4-fold field concentration, 3 days after spraying): 49%
- Average damage % 7DAT ([1]; CK1 (wild-type soybean), 4-fold field concentration, 7 days after spraying): 87%
- Average damage % 14DAT ([1]; CK1 (wild-type soybean), 4-fold field concentration, 14 days after spraying): 100%
- Average damage % 21DAT ([1]; CK1 (wild-type soybean), 4-fold field concentration, 21 days after spraying): 100%
- herbicide tolerance of wild-type plants ([1]; wild-type soybean plants): not tolerant
- Average damage % 3DAT [2, 3]: 6%
- Average damage % 7DAT [2, 3]: 0%
- Average damage % 14DAT [2, 3]: 0%
- Average damage % 21DAT [2, 3]: 0%
- Average damage % 3DAT [2, 4]: 7%
- Average damage % 7DAT [2, 4]: 0%
- Average damage % 14DAT [2, 4]: 0%
- Average damage % 21DAT [2, 4]: 0%
- Average damage % 3DAT [2, 5]: 0%
- Average damage % 7DAT [2, 5]: 0%
- Average damage % 14DAT [2, 5]: 0%
- Average damage % 21DAT [2, 5]: 0%
- Average damage % 3DAT [2, 6]: 0%
- Average damage % 7DAT [2, 6]: 0%
- Average damage % 14DAT [2, 6]: 0%
- Average damage % 21DAT [2, 6]: 0%
- Average damage % 3DAT [2, 7]: 6%
- Average damage % 7DAT [2, 7]: 0%
- Average damage % 14DAT [2, 7]: 0%
- Average damage % 21DAT [2, 7]: 0%
- Average damage % 3DAT [2, 8]: 5%
- Average damage % 7DAT [2, 8]: 0%
- Average damage % 14DAT [2, 8]: 0%
- Average damage % 21DAT [2, 8]: 0%
- Average damage % 3DAT [2, 9]: 0%
- Average damage % 7DAT [2, 9]: 0%
- Average damage % 14DAT [2, 9]: 0%
- Average damage % 21DAT [2, 9]: 0%
- Average damage % 3DAT [2, 10]: 0%
- Average damage % 7DAT [2, 10]: 0%
- Average damage % 14DAT [2, 10]: 0%
- Average damage % 21DAT [2, 10]: 0%
- Average damage % 3DAT [2, 11]: 8%
- Average damage % 7DAT [2, 11]: 0%
- Average damage % 14DAT [2, 11]: 0%
- Average damage % 21DAT [2, 11]: 0%
- Average damage % 3DAT [2, 12]: 7%
- Average damage % 7DAT [2, 12]: 0%
- Average damage % 14DAT [2, 12]: 0%
- Average damage % 21DAT [2, 12]: 0%
- Average damage % 3DAT [2, 13]: 0%
- Average damage % 7DAT [2, 13]: 0%
- Average damage % 14DAT [2, 13]: 0%
- Average damage % 21DAT [2, 13]: 0%
- Average damage % 3DAT [2, 14]: 0%
- Average damage % 7DAT [2, 14]: 0%
- Average damage % 14DAT [2, 14]: 0%
- Average damage % 21DAT [2, 14]: 0%
- herbicide tolerance conferred by the thifensulfuron hydrolase (ALT-1, ALT-2 and ALT-3) ([2]; transgenic soybean plants): conferred a high level of Sulfometuron-methyl herbicide tolerance

Reference: patent US20190055576A1, “USE OF HERBICIDE-TOLERANT PROTEIN” (BEIJING DABEINONG TECHNOLOGY GROUP CO., LTD., priority 2016, published 2019)
